This is an account of results in PMC5867678 (Journal of Medicinal Chemistry, 2018).

Entries after “also recorded” stand apart in the source; their conditions may differ. Like-named read-outs stand apart in the source and are kept apart here.

Data set [1] can be described thus: Microsomal stability, human liver microsomes. The conditions noted are these: pooled human liver microsomes; for remaining at 0.5 h, 0.5 μM: 30 min (data in parentheses). Format: in vitro ADME.
A short description of data set [2]: Microsomal stability, CD-1 mouse liver microsomes. The conditions noted are these: for remaining at 0.5 h, 0.5 μM: 30 min (data in parentheses). It counts as in vitro ADME. For orientation: Liver microsomes are a subcellular fraction often used to study metabolism.
The nature of data set [3]: Hamster pharmacokinetics. More on the design: species or system golden Syrian hamsters. The conditions noted are these: female, golden Syrian, in vivo, po.
Data set [4] relates to Salmonella typhimurium (TA98 and TA100). Description: Ames test (Mini-Ames reverse mutation screen). It counts as cell-based. The conditions noted are these: strains TA98 and TA100, with or without S9. The text has this:
Two strains of Salmonella typhimurium (TA98 and TA100) were employed, in the presence and absence of metabolic activation (rat liver S9). Positive controls (2-aminoanthracene, 2-nitrofluorene, and sodium azide) and a negative (DMSO solvent) control were included.

Data set [5] in a line: Mouse pharmacokinetics. The conditions noted are these: in vivo; for AUC(0-t) / Cmax: female, BALB/c, 40 mg/kg; for AUC(0-t) / Cmax / bioavailability: po; for bioavailability: male.
A short description of data set [6]: Rat pharmacokinetics. Set-up: species or system Sprague-Dawley rats. The note with it: male, Sprague-Dawley, in vivo, po, 40 mg/kg. How it is done:
All studies were conducted in fasted animals (either male Sprague-Dawley rats or female golden Syrian hamsters) by WuXi AppTec (Shanghai) Co., Ltd. Intravenous dosing (at 1 mg/kg for rats and 2 mg/kg for hamsters) utilized a solution formulation of 20% NMP and 40% PEG-400 in citrate buffer (pH 3). In rats, oral dosing (at 40–50 mg/kg) was as a suspension in 0.08% Tween 80 and 0.5% CMC in water, whereas PEG-400 was the vehicle employed for oral dosing in hamsters (at 40–50 mg/kg). Plasma samples (at 0.083 for iv only, 0.25, 0.5, 1, 2, 4, 8, and 24 h) were analyzed by LC–MS/MS, and the PK parameters were calculated using Phoenix WinNonlin software (version 6.3).

Data set [7] can be described thus: Permeability assay in MDCK-MDR1 cells. The conditions noted are these: dog.
Data set [8] relates to Caco-2. More on the design: method as in PMID 25261338. The conditions noted are these: Caco-2 data; cited from earlier work.
Data set [9] relates to Salmonella typhimurium (TA98 and TA100). The conditions noted are these: cited from earlier work.
The conditions of data set [10]: cited from earlier work.
The conditions of data set [11]: human, in vivo; cited from earlier work.

What is called share remaining is the share of the starting amount still present when the sample was taken. Turning to `O=[N+]([O-])c1cn2c(n1)OC[C@@H](OCc1ccc(-c3ccc(OC(F)F)cc3)cn1)C2` [S-92], the amount remaining at 0.5 h, 0.5 μM in data set [1] and in [2] was greater than 70% throughout.
Broadly, the bioavailability is dose-corrected exposure relative to a reference, in per cent. Take `O=[N+]([O-])c1cn2c(n1)OC[C@H](OCc1ccc(-c3ccc(F)cc3F)nc1)C2` [R-106]: the bioavailability in data set [3] lay within 21 to 37%.
For orientation: AUC(0-t) means exposure summed from dosing to a finite time, without extrapolation to infinity. Low readings indicate less exposure, high ones more exposure. In general, Cmax refers to the peak of the concentration-time curve. A word on the Papp A→B: it is the apparent permeability from the apical to the basolateral side of a cell layer. Low values mean slow passage, high ones fast passage. Turning to `O=[N+]([O-])c1cn2c(n1)OC[C@H](Oc1ccc(OC(F)(F)F)cc1)C2` [R-6, (6R)-2-Nitro-6-[4-(trifluoromethoxy)phenoxy]-6,7-dihydro-5H-imidazo[2,1-b][1,3]oxazine], the “mutagenic effect (Ames test)” value in [4] is reported as “negative; also recorded: no ^d”. Besides, in data set [5], the AUC(0-t) turned out to be 272 µg·h/mL and the maximum concentration (Cmax) was determined as 21000 ng/mL. In data set [6], this molecule returned an AUC(0-t) of 80.6 µg·h/mL and a Cmax of 5200 ng/mL. The molecule also returned an apical-to-basolateral permeability (Papp A→B) at […], 2 µM in [7] of 32.4 ×10⁻⁶ cm/s.
`O=[N+]([O-])c1cn2c(n1)OC[C@H](OCc1ccc(-c3ccc(OC(F)(F)F)cc3)cn1)C2` [R-84]: in [5], the exposure AUC(0-t) is 211 µg·h/mL and the highest concentration (Cmax) was 16000 ng/mL.
Regarding `O=[N+]([O-])c1cn2c(n1)OC[C@@H](OCc1cccc(-c3ccc(OC(F)(F)F)cc3)n1)C2` [S-77], the fraction remaining at 0.5 h, 0.5 μM in [1] and in data set [2] was greater than 70% each time.
As for `O=[N+]([O-])c1cn2c(n1)OC[C@@H](OCc1ccc(-c3ccc(OC(F)(F)F)cc3Cl)cn1)C2` [S-91], the fraction remaining at 0.5 h, 0.5 μM in data set [1] and in [2] was greater than 70% in each case.
As for `O=[N+]([O-])c1cn2c(n1)OC[C@H](Oc1ccc(C(F)(F)F)cn1)C2` [R-136, (6R)-2-Nitro-6-{[5-(trifluoromethyl)pyridin-2-yl]oxy}-6,7-dihydro-5H-imidazo[2,1-b][1,3]oxazine], the fraction remaining at 1 h, 1 μM in data set [1] and in [2] was 90 to 92% in each case. The “mutagenic effect (Ames test)” value in data set [4] was “positive”.
As to `O=[N+]([O-])c1cn2c(n1)OCC(COc1ccc(-c3ccc(F)cc3)nc1)C2` (stereo not drawn) [compound 117], the bioavailability in [5] (Swiss albino) lay within 11 to 15%.
In the case of `O=[N+]([O-])c1cn2c(n1)OC[C@H](OCc1ccc(-c3ccc(F)cc3F)cn1)C2` [R-96], the fraction remaining at 1 h, 1 μM in [1] and in data set [2] was 57 to 59% each time. The bioavailability in [3] lay in the range of 21 to 37%.
For `O=[N+]([O-])c1cn2c(n1)OC[C@@H](OCc1ccc(-c3ccc(OC(F)(F)F)cc3F)cn1)C2` [S-89], the amount remaining at 0.5 h, 0.5 μM in [1] and in data set [2] was greater than 70% throughout.
As for `O=[N+]([O-])c1cn2c(n1)OC[C@@H](OCc1cccc(-c3ccc(F)cc3)n1)C2` [S-81], the share remaining at 0.5 h, 0.5 μM in data set [1] and in data set [2] was greater than 70% throughout.
With `O=[N+]([O-])c1cn2c(n1)OC[C@H](OCc1ccc(-c3ccc(OC(F)(F)F)cc3F)cn1)C2` [R-89], in [5], the exposure AUC(0-t) was 265 µg·h/mL and the Cmax came to 32000 ng/mL.
In the case of `C[C@]1(COc2ccc(OC(F)(F)F)cc2)Cn2cc([N+](=O)[O-])nc2O1` [compound 4], in [8], the “permeability, Papp A to B” value is reported as 22.6 ×10^–6 cm/s and the “permeability, Papp B to A” value is listed as 24.7 ×10^–6 cm/s. The “mutagenic effect (Ames test)” value in data set [9] is “no”. Further, in [10], the “LogD (measured)” value was 3.10.
For the molecule `O=[N+]([O-])c1cn2c(n1)OC[C@@H](OCc1ccc(OC(F)(F)F)cc1)C2` [S-1, (6S)-2-nitro-6-{[4-(trifluoromethoxy)benzyl]oxy}-6,7-dihydro-5H-imidazo[2,1-b][1,3]oxazine], the “half-life in clinical trials for TB” value in data set [11] is 16 to 18 h.
Broadly, the half-life is the time needed for the level to fall by half in the phase considered. Regarding `O=[N+]([O-])c1cn2c(n1)OCC(COc1ccc(OC(F)(F)F)cc1)C2` (stereo not drawn) [compound 24], the half-life in data set [5] (Swiss albino, iv, 1 mg/kg) was 2 h.
For the molecule `O=[N+]([O-])c1cn2c(n1)OCC(COc1ccc(-c3ccc(OC(F)(F)F)cc3)nc1)C2` (stereo not drawn) [compound 116], in data set [5] (Swiss albino), the bioavailability lay in the range of 11 to 15%.
For the molecule `CSc1ccc(OCc2ncc([N+](=O)[O-])n2C)cc1` [fexinidazole], the Ames test result in data set [9] is listed as “positive”.
